Here are results for 60 compounds from patent US11780845B2 (Relay Therapeutics, Inc., priority 2019, dated 2023).

Chain of FGFR2 (P21802 22-821): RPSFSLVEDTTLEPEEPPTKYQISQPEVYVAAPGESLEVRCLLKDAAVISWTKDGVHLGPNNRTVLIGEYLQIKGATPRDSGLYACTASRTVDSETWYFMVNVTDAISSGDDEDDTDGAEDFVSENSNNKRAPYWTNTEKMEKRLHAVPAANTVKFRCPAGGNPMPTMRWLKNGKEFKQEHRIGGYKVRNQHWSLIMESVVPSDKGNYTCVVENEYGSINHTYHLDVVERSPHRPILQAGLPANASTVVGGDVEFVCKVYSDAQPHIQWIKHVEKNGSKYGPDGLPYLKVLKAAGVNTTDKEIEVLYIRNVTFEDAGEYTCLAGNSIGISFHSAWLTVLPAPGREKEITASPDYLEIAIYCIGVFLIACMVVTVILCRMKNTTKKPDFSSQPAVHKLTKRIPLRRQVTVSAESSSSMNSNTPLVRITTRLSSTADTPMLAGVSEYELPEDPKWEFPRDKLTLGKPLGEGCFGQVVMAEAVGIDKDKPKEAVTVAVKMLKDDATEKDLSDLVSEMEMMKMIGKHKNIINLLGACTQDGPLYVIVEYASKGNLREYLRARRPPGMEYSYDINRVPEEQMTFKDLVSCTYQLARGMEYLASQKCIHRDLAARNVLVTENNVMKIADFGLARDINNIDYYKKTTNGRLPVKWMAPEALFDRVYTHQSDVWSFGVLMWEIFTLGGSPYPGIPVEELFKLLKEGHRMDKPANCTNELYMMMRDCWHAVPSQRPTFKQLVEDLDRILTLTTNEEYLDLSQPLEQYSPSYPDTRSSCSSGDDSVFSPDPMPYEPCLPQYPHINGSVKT

One assay relates to SNU-16. The assay can be described thus: Cell SNU-16 assay. Format: cell-based. The note with it: Homo sapiens; SNU-16 cells.
As usually defined, the IC50 is the concentration needed to halve the response being measured. Turning to `C=C(C)C(=O)Nc1ccc(-c2c(-c3ccc(Oc4nccc(C)n4)c(F)c3)c3c(N)ncnc3n2C)cc1` [Example 1028], the IC50 is no more than 100 nM.

The same assay, now with this note: SNU-16 cells.
In turn, `C#Cc1ccc(-c2c(-c3ccc(Oc4nccc(C)n4)c(F)c3)c3c(N)ncnc3n2C(C)C)c(C)n1` (atropisomer, axis not shown) [Example 1258] displayed an IC50 of no more than 100 nM.

For `C#Cc1ccc(-c2c(-c3ccc(Oc4nccc(C)n4)c(F)c3)c3c(N)ncnc3n2C(C)C)c(C)n1` (atropisomer, axis not shown) [Example 1259], the IC50 is no more than 100 nM.

`C#Cc1cc(C)c(-c2c(-c3ccc(Oc4nccc(C)n4)c(F)c3)c3c(N)ncnc3n2C(C)C)cn1` (atropisomer, axis not shown) [Example 1307] came in with an IC50 of no more than 100 nM.

`C#Cc1cc(C)c(-c2c(-c3ccc(Oc4nccc(C)n4)c(F)c3)c3c(N)ncnc3n2C(C)C)cn1` (atropisomer, axis not shown) [Example 1308]: the IC50 was no more than 100 nM.

In turn, `C#Cc1cc(C)c(-c2c(-c3ccc(Oc4nccc(C)n4)c(F)c3)c3c(N)ncnc3n2C)c(F)n1` (atropisomer, axis not shown) [Example 1339] came in with an IC50 of no more than 100 nM.

Compound `C#Cc1cc(C)c(-c2c(-c3ccc(Oc4nccc(C)n4)c(F)c3)c3c(N)ncnc3n2C)c(F)n1` (atropisomer, axis not shown) [Example 1340] showed an IC50 of no more than 100 nM.

For the compound `C#Cc1cc(C)c(-c2c(-c3ccc(Oc4nccc(C)n4)c(F)c3)c3c(N)ncnc3n2C)c(C)n1` (atropisomer, axis not shown) [Example 1342], the IC50 is no more than 100 nM.

With `C#Cc1cc(C)c(-c2c(-c3ccc(Oc4nccc(C)n4)c(F)c3)c3c(N)ncnc3n2C)c(C)n1` (atropisomer, axis not shown) [Example 1344], the IC50 was no more than 100 nM.

In turn, `C#Cc1cc(C)c(-c2c(C3=CC[C@H](C(=O)N4CCC[C@H]4C)CC3)c3c(N)ncnc3n2C)c(F)n1` (atropisomer, axis not shown) [Example 1349] displayed an IC50 of no more than 100 nM.

Take `C#Cc1ncc(-c2c(-c3ccc(Oc4nccc(C)n4)c(F)c3)c3c(N)ncnc3n2C(C)C)c(C)c1F` (atropisomer, axis not shown) [Example 1360]: the IC50 is no more than 100 nM.

Compound `C#Cc1ncc(-c2c(-c3ccc(Oc4nccc(C)n4)c(F)c3)c3c(N)ncnc3n2C(C)C)c(C)c1F` (atropisomer, axis not shown) [Example 1361] came in with an IC50 of no more than 100 nM.

The compound `C#Cc1cc(C)c(-c2c(C3=CC[C@H](C(=O)N4CCC[C@H]4C#N)CC3)c3c(N)ncnc3n2C)c(C)n1` (atropisomer, axis not shown) [Example 1470] gave an IC50 of no more than 100 nM.

For the compound `C#Cc1cc(C)c(-c2c(C3=CC[C@@H](C(=O)N4CCC[C@H]4C#N)CC3)c3c(N)ncnc3n2C)c(C)n1` (atropisomer, axis not shown) [Example 1472], the concentration for half-maximal inhibition (IC50) is no more than 100 nM.

Consider `C#Cc1cc(C)c(-c2c(-c3ncc(Oc4nccc(C)n4)cc3F)c3c(N)ncnc3n2C)c(C)n1` (atropisomer, axis not shown) [Example 1493], for which the IC50 is no more than 100 nM.

With `C=CC(=O)Nc1ccc(-c2c(C3=CC[C@H](C(=O)N4CCCC4)CC3)c3c(N)ncnc3n2C)cc1` (single isomer, unassigned) [Example 1049], the IC50 is no more than 100 nM.

Consider `C=CC(=O)Nc1ccc(-c2c(C3=CC[C@@H](C(=O)N4CCCC4)CC3)c3c(N)ncnc3n2C)cc1` (single isomer, unassigned) [Example 1051], for which the IC50 is no more than 100 nM.

Turning to `C=C(C)C(=O)Nc1cc(C)c(-c2c(C3=CC[C@@H](C(=O)N4CCCC4)CC3)c3c(N)ncnc3n2C)c(C)c1` (single isomer, unassigned) [Example 1485], the IC50 was in the range of 1000 to 100000 nM.

For the compound `C=C(C)C(=O)Nc1cc(C)c(-c2c(C3=CC[C@H](C(=O)N4CCCC4)CC3)c3c(N)ncnc3n2C)c(C)c1` (single isomer, unassigned) [Example 1487], the IC50 is 1000 to 100000 nM.

The next assay concerns the target FGFR2 (Homo sapiens (Human), UniProt P21802). Kind of assay: Biochemical FGFR2 Caliper assay.
Details: not given
Compound `C=CC(=O)Nc1ccc(-c2c(-c3ccc4cc[nH]c4c3)c3c(N)ncnc3n2C)cc1` [Example 1147] yielded an IC50 of 1000 to 100000 nM.

In turn, `C=CC(=O)Nc1ccc(-c2c(-c3cc4ccccc4s3)c3c(N)ncnc3n2C)cc1` [Example 1149] showed an IC50 of less than 100 nM.

`C=CC(=O)Nc1ccc(-c2c(-c3cnsc3)c3c(N)ncnc3n2C)cc1` [Example 1150] displayed an IC50 of less than 100 nM.

Regarding `C=C(C)C(=O)Nc1ccc(-c2c(C#Cc3cc(OC)cc(OC)c3)c3c(N)ncnc3n2C)cc1` [Example 1152], the IC50 lay within 1000 to 100000 nM.

Take `C=C(C)C(=O)Nc1ccc(-c2c(-c3ccc(-c4ccn[nH]4)cc3)c3c(N)ncnc3n2C)cc1` [Example 1156]: the IC50 was 1000 to 100000 nM.

As to `C#Cc1ncc(-c2[nH]c3ncnc(N)c3c2-c2ccc(Oc3nccc(C)n3)cc2)c(C)n1` [Example 1159], the IC50 fell in the range of 250 to 1000 nM.

As for `Cn1c(-c2ccc(C#N)cc2)c(-c2ccccc2)c2c(N)ncnc21` [Example 1173], the IC50 lay within 1000 to 100000 nM.

`C#Cc1ccc(-c2c(-c3ccc(Oc4nccc(C)n4)c(F)c3)c3c(C)ncnc3n2C)c(C)n1` [Example 1174] yielded a half-maximal inhibitory concentration (IC50) of 1000 to 100000 nM.

For the compound `C#Cc1cnc(-c2c(-c3ccc(Oc4nccc(C)n4)cc3)c3c(N)ncnc3n2C)c(C)n1` [Example 1176], the IC50 was in the range of 1000 to 100000 nM.

Compound `C#Cc1ncc(-c2c(-c3ccc(Oc4nccc(C)n4)cc3)c3c(N)ncnc3n2C)cc1OC` [Example 1178] displayed an IC50 of 1000 to 100000 nM.

As for `C=C(C)C(=O)Nc1ccc(-c2c(C3=CCN(C(=O)OCc4ccccc4)CC3)c3c(N)ncnc3n2C)cc1` [Example 1190], the IC50 lay within 1000 to 100000 nM.

For `C=C(C)C(=O)Nc1ccc(-c2c(-c3ccc(-n4cc(C)cn4)cc3)c3c(N)ncnc3n2C)cc1` [Example 1191], the IC50 lay in the range of 1000 to 100000 nM.

In turn, `C#Cc1ccc(-c2c(-c3ccccc3)c3c(N)ncnc3n2C)cn1` [Example 1192] registered an IC50 of less than 100 nM.

`C=Cc1cc(-c2c(-c3ccccc3)c3c(N)ncnc3n2C)ccn1` [Example 1195] displayed an IC50 of 100 to 250 nM.

`C#Cc1cc(C)c(-c2c(-c3ccc(Oc4nccc(C)n4)cc3F)c3c(N)ncnc3n2C)cn1` [Example 1196] registered an IC50 of 250 to 1000 nM.

As to `C=C(C)C(=O)Nc1ccc(-c2c(-c3cc4ccccc4s3)c3c(N)ncnc3n2C)cc1` [Example 1209], the IC50 lay within 250 to 1000 nM.

Compound `C=C(C)C(=O)Nc1ccc(-c2c(C3=CCN(c4ccccc4)CC3)c3c(N)ncnc3n2C)cc1` [Example 1216] had an IC50 of 1000 to 100000 nM.

Compound `C=CC(=O)Nc1ccc(-c2c(-c3ccc(Oc4ccccc4)cc3)c3c(C)ncnc3n2C(C)C)cc1` [Example 1218] showed an IC50 of 1000 to 100000 nM.

Compound `C=CC(=O)Nc1ccc(-c2c(-c3ccc(Oc4cccc(C)n4)cc3)c3c(C)ncnc3n2C)cc1` [Example 1220] showed an IC50 of less than 100 nM.

Consider `C=C(C)C(=O)Nc1ccc(-c2c(-c3cc(-c4ccccc4)cs3)c3c(N)ncnc3n2C)cc1` [Example 1221], for which the IC50 fell in the range of 250 to 1000 nM.

For `C=C(C)C(=O)Nc1ccc(-c2c(C3=CCC(c4nc(C)no4)CC3)c3c(N)ncnc3n2C)cc1` (stereo not drawn) [Example 1222], the IC50 fell in the range of 1000 to 100000 nM.

Compound `C=CC(=O)Nc1ccc(-c2c(-c3cc4ccccc4s3)c3c(C)ncnc3n2C)cc1` [Example 1223] had an IC50 of 1000 to 100000 nM.

As for `C=C(C)C(=O)Nc1ccc(-c2c(-c3ccc(-c4coc(C)n4)cc3)c3c(N)ncnc3n2C)cc1` [Example 1224], the IC50 was in the range of 250 to 1000 nM.

In turn, `C=CC(=O)Nc1ccc(-c2c(-c3ccc(Oc4ccccc4)cc3)c3c(C)ncnc3n2C)cc1` [Example 1225] returned an IC50 of 250 to 1000 nM.

Consider `C=C(C)C(=O)Nc1ccc(-c2c(-c3ccc(-n4cc(C(F)(F)F)cn4)cc3)c3c(N)ncnc3n2C)cc1` [Example 1226], for which the IC50 was in the range of 1000 to 100000 nM.

In turn, `C=C(C)C(=O)Nc1ccc(-c2c(C3=CCC(c4ccccc4)CC3)c3c(N)ncnc3n2C)cc1` (stereo not drawn) [Example 1227] returned an IC50 of 1000 to 100000 nM.

As for `C=C(C)C(=O)Nc1ccc(-c2c(-c3ccc(-c4nc(C)no4)cc3)c3c(N)ncnc3n2C)cc1` [Example 1244], the IC50 is 1000 to 100000 nM.

In the case of `C=C(C)C(=O)Nc1ccc(-c2c(-c3sc4ccccc4c3C)c3c(N)ncnc3n2C)cc1` [Example 1247], the IC50 lay within 1000 to 100000 nM.

On to `C=CC(=O)Nc1ccc(-c2c(-c3ccccc3)c3c(C)ncnc3n2C)cc1` [Example 1248], for which the IC50 lay within 1000 to 100000 nM.

In turn, `C=CC(=O)Nc1ccc(-c2[nH]c3ncnc(C)c3c2-c2ccc(Oc3ccccc3)cc2)cc1` [Example 1254] registered an IC50 of 1000 to 100000 nM.

On to `C=CC(=O)Nc1ccc(-c2[nH]c3ncnc(C)c3c2-c2cc3ccccc3s2)cc1` [Example 1256], for which the IC50 lay in the range of 1000 to 100000 nM.

In turn, `C=C(C)C(=O)Nc1ccc(-c2c(-c3ccc(-c4noc(C5CC5)n4)c([N+](=O)[O-])c3)c3c(N)ncnc3n2C)cc1` [Example 1317] yielded an IC50 of 1000 to 100000 nM.

Compound `C=C(C)C(=O)Nc1ccc(-c2c(-c3ccc(-c4noc(C5CC5)n4)c(N)c3)c3c(N)ncnc3n2C)cc1` [Example 1318] showed an IC50 of 1000 to 100000 nM.

As for `C=C(F)C(=O)Nc1ccc(-c2c(-c3ccc(-c4noc(C5CC5)n4)cc3)c3c(N)ncnc3n2C)cc1` [Example 1326], the IC50 was in the range of 100 to 250 nM.

`C=C(C)C(=O)Nc1ccc(-c2c(-c3ccc(-c4noc(C5CC5)n4)cc3)c3c(N)ncnc3n2C)cc1` [Example 1333] showed an IC50 of 250 to 1000 nM.

With `C=CC(=O)Nc1ccc(-c2c(-c3ccc(-c4noc(C5CC5)n4)cc3)c3c(N)ncnc3n2C)cc1` [Example 1335], the IC50 is less than 100 nM.

In the case of `C=C(C)C(=O)Nc1ccc(-c2c(-c3ccc(-c4noc(C5CC5)n4)cc3)c3c(N)ncnc3n2C)cn1` [Example 1362], the IC50 fell in the range of 100 to 250 nM.

For the compound `C#Cc1cc2c(cn1)-c1c(C3=CC[C@@H](C(=O)N4CCC[C@H]4C#N)CC3)c3c(N)ncnc3n1CCC2` [Example 1444], the IC50 was less than 100 nM.

Turning to `[2H]C#Cc1cc2c(cn1)-c1c(-c3ccc(Oc4nccc(C)n4)c(F)c3)c3c(N)ncnc3n1CCC2` [Example 1449], the 50% inhibitory concentration (IC50) is less than 100 nM.

In turn, `C#Cc1cc(OC)c(-c2c(-c3ncc(Oc4nccc(C)n4)cc3F)c3c(N)ncnc3n2C)c(C)n1` [Example 1451] came in with an IC50 of less than 100 nM.

In the case of `C#Cc1cc2c(cn1)-c1c(C3=CC[C@H](C(=O)N4CCC[C@H]4C#N)CC3)c3c(N)ncnc3n1CCC2` [Example 1496], the IC50 fell in the range of 250 to 1000 nM.
